Reference: patent US8431554B2, “Compound showing anti-inflammatory activity and antiviral activity, pharmaceutical compositions comprising the same, a process for obtaining the same and use of the same in the treatment of epidemic keratoconjunctivites and herpetic stromal keratis” (priority 2007, dated 2013)

How the values were obtained:
[1] = test system: strain KOS of HSV-1 (herpetic stromal keratitis); assay: Murine model of herpetic stromal keratitis (HK) induced by HSV-1; assay type: in vivo, mice; details: for incidence of HK upon completion of the period of disease / severity of lesions versus non-treated infected mice / incidence of HK (mice with signs of keratitis): treated days 1, 2, 3 p.i.; for incidence of HK upon completion of the period of disease / incidence of HK (mice with signs of keratitis): FIG. 1A; for severity of lesions versus non-treated infected mice: FIG. 1B
Experimental: To determine if the treatment with compound I, after viral inoculation, affected the signs of HK, male mice of 6-8 weeks were anesthetized with ketamine/xylazine intraperitoneally and infected with the strain KOS of HSV-1 in the right corneas, previously scrapped with a needle. One group of animals was treated with buffered saline solution (PBS) (control of disease), while the rest were treated topically with a concentration of 40 μM of compound I three times a day. Also, groups of animals to control the antiviral activity of aciclovir (ACV) and anti-inflammatory activity of dexamethasone (DEX) were included, both drugs were commercially available.
It was determined the incidence of the disease as well as the degree of severity of the lesions and evolution of HK was determined under a magnifying glass during 15 days. The diagnosis of the disease is based on the density of inflammatory infiltrates, lengthening of vessels with corneal invasion (neovascularization), and the presence of surface ulcers. Therefore, mice presenting swollen eyelids (blepharitis), neovascularization in more than 10% of the corneal surface, and corneal opacity with or without signs of necrosis, were considered sick of HK.
The signs of ocular signs are gradually developed from the days 6-7 post-infection (p.i.) and the percentage of animals with HK and severity of the signs of the disease on days 3, 8, and 15 p.i were recorded (FIG. 1 y 2).
To evaluate the antiviral activity of compound I, the compound was applied to a group of animals on days 1, 2 y 3 p.i., the days when multiplication of HSV-1 in the cornea occurs. Also, other groups of mice were treated with ACV—as a positive control of antiviral activity—and with DEX.
To evaluate the anti-inflammatory activity of compound I, the compound was applied on days 6, 7 and 8 p.i., the time when HK manifests.

[2] = test system: mice; assay: Toxicity assay in vivo; details: 40 μM, three times a day, three consecutive days
Experimental: A toxicity assay in vivo was performed.

[3] = test system: strain KOS of HSV-1 (herpetic stromal keratitis); assay: Murine model of herpetic stromal keratitis (HK) induced by HSV-1; assay type: in vivo, mice; details: treated days 6, 7, 8 p.i.; read on day 10 p.i.; FIG. 2A
[4] = test system: adenovirus (ADV-5); assay: Antiviral activity against adenovirus in infected IOBA-NHC cultures; assay type: cell-based; details: ADV-5, IOBA-NHC; for viral activity (used for selectivity index): multiplicity of infection of 1; for inhibition of adenovirus replication, in words: multiplicity of infection of 1, different concentrations
[5] = Cytotoxicity, colorimetric MTT assay in IOBA-NHC cells; assay type: cell-based; details: human, IOBA-NHC human conjunctival cells, confluent monolayers, 24 hours at 37° C., read-out: CC50 (Cytotoxyc concentration 50)
Experimental: The activity anti-HSV-1 of the compounds I and II was evaluated in human conjunctive cells (IOBA-NHC). First, it was determined cytotoxicity of the same for cells IOBA-NHC using the colorimetric assay with MTT, based on the cleavage of the tetrazolium salt MTT (3-(4,5-dimethylthiazol-2-yl)-2,5-diphenyl tetrazolium […]) by the mitochondrial enzyme succinate dehydrogenase, to obtain a blue product, formazan (Denizot F, Lang R. Rapid colorimetric assay for cell growth and survival. Journal of Immunological Methods 1986; 89:271-77). The compounds dissolved in ethanol are added to confluent monolayers of cells IOBA-NHC grown in microplates of 96 wells, in concentrations of up to 600 μM, according to the compound. The ethanol concentration was lower than 1%. After 24 hours of incubation at 37° C., the absorbency of each well was read at 570 nm, with a reference wave length of 630 nm. It was determined the 50% cytotoxyc concentration (CC50) as the concentration of compound that reduces absorbency to 50% in relation with the control not treated (Table 1).

[6] = test system: strain KOS of HSV-1; assay: Anti-HSV-1 activity, virus yield in infected IOBA-NHC cells titrated in Vero cells; assay type: cell-based; details: for EC50: Human alphaherpesvirus 1, Vero, HSV-1 KOS, m.i. 0.2, IOBA-NHC cells, 24 h, read-out: CE50 (Effective concentration 50); for IS, Selectivity index (CC50/CE50): anti-HSV-1, IOBA-NHC cells
Experimental: To evaluate the antiviral activity of the compounds I and II, monolayers of cells IOBA-NHC grown in microplates of 24 wells were infected with the strain KOS of HSV-1 at a multiplicity of infection (m.i.) of 0.2, and treated with different concentrations of the compounds. Infected cells not treated were used as control of the infection. After incubating at 37° C. during 24 h, the free and cell associated virus was harvested and titrated in Vero cells by plating in semisolid medium. It was observed an inhibition of dose-dependent viral replication in the cells treated with the compounds I and II (Table 1).

[7] = Cytotoxicity used for the adenovirus selectivity index; assay type: cell-based; details: human; IOBA-NHC
Experimental: The antiviral selectivity index of Compound I for adenovirus is of 31.6. Said index was determined as a quotient between its viral activity (=63.2) and its cytotoxicity (=2).
The antiviral selectivity index of Compound II for adenovirus is of […] Said index was determined as a quotient between its viral activity (=62.6) and its cytotoxicity (=4).

[8] = test system: alpha-TNF production in macrophages J774; assay: Inhibition of alpha-TNF production in LPS-treated J774 macrophages; assay type: cell-based; details: different concentrations
Text: Also, compound I has anti-inflammatory activity.
Also, said compound II has anti-inflammatory activity.

[9] = treated days 6, 7, 8 p.i., FIG. 2A

SMILES	incidence of HK upon completion of the period of disease [1]	severity of lesions versus non-treated infected mice [1]	incidence of HK (mice with signs of keratitis) ([1]; read on day 8 p.i.)	HK signs, in words [1, 9]	toxic effects in vivo [2]	mice with signs of the disease (HK) [3]	antiviral selectivity index for adenovirus [4]	viral activity (used for selectivity index) [4]	inhibition of adenovirus replication, in words [4]	CC50 at 24 h [5]	EC50 [6]	IS, Selectivity index (CC50/CE50) [6]	cytotoxicity [7]	inhibition of alpha-TNF production, in words [8]	severity of the signs of keratitis versus infection control ([1]; treated days 6, 7, 8 p.i., FIG. 2B)	mice with signs of the disease (HK) ([1]; treated days 6, 7, 8 p.i., read on day 8 p.i., FIG. 2A)
Nc1nc2c(ncn2COCCO)c(=O)[nH]1 [ACV, aciclovir, reference compound]	30%	significant differences	10%	had no effect on the improvement of disease signs	–	–	–	–	–	–	–	–	–	–	–	–
CC[C@@H](C(C)C)[C@H](O)[C@@H](O)[C@@H](C)[C@H]1CC[C@H]2[C@@H]3CCC4=CC(=O)CC[C@]4(C)[C@H]3CC[C@]12C [Compound I, (22S,23S)-22,23-dihydroxystigmast-4-en-3-one]	40%	significant differences	30%	reduced significantly	absence of toxic effects	40%	31.6	63.2	inhibits virus replication according to the concentration of compound used	71.2 µM	5.4 µM	13.2	2	inhibits production of alpha-TNF	lower	30%
CC[C@@H](C(C)C)[C@H](O)[C@@H](O)[C@@H](C)[C@H]1CC[C@H]2[C@@H]3CCC4=CC(=O)C=C[C@]4(C)[C@H]3CC[C@]12C [Compound II, (22S,23S)-22,23-dihydroxystigmasta-1,4-dien-3-one]	–	–	–	–	–	–	15.67	62.6	inhibits virus replication according to the concentration of compound used	70.8 µM	17.9 µM	3.9	4	inhibits production of alpha-TNF	–	–
